Experimental data as given in ChEMBL document CHEMBL4715815, “Design, synthesis and biological evaluation of 7H-pyrrolo[2,3-d]pyrimidin-4-amine derivatives as selective Btk inhibitors with improved pharmacokinetic properties for the treatment of rheumatoid arthritis” (Eur J Med Chem, 2018).
Active and inactive are the calls of the source. The rule behind the calls is not given here.

Experiments:
[1] = target: BDNF/NT-3 growth factors receptor (Homo sapiens, UniProt Q16620); test: Inhibition of recombinant human TRKb using Ulight-Poly GAT[EAY(1:1:1)]n as substrate incubate for 10 mins by LANCE assay
Chain of BDNF/NT-3 growth factors receptor (Q16620 whole entry): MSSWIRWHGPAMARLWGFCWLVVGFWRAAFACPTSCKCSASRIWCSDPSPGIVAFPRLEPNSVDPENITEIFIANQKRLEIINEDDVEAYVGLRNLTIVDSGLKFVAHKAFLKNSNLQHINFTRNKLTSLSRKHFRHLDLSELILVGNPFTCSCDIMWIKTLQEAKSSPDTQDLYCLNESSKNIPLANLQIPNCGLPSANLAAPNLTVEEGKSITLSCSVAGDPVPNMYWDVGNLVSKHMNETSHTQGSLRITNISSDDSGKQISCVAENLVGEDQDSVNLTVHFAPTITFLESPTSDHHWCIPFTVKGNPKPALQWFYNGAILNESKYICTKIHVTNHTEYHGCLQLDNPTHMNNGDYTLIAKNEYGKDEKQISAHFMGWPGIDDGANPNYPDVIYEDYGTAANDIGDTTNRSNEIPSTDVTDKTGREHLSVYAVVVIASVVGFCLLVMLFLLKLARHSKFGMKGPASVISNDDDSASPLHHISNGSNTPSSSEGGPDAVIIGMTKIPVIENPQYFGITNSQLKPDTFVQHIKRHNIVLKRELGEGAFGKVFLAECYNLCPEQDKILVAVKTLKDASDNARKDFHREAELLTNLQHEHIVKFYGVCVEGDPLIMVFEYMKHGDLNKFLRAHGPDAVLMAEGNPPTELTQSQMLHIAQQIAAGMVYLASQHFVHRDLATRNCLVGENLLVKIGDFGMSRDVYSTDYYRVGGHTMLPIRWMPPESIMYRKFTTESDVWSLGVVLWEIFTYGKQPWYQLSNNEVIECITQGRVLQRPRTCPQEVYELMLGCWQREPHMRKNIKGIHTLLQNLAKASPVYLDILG

[2] = Metabolic stability in dog liver microsomes assessed as half life at 100 uM/L measured upto 90 mins by LC-MS/MS analysis; assay type: ADME, Canis lupus familiaris, Microsome
[3] = Toxicity in BALB/c mouse assessed as clinical signs at 2 g/kg, po measured after 7 days of administration; conditions: in vivo, 168 h
[4] = Metabolic stability in rat liver microsomes assessed as half life at 100 uM/L measured upto 90 mins by LC-MS/MS analysis; assay type: ADME, Microsome
[5] = target: Calcium/calmodulin-dependent protein kinase kinase 2 (Homo sapiens, UniProt Q96RR4); test: Inhibition of CAMKK2 (unknown origin)
Chain of Calcium/calmodulin-dependent protein kinase kinase 2 (Q96RR4 whole entry): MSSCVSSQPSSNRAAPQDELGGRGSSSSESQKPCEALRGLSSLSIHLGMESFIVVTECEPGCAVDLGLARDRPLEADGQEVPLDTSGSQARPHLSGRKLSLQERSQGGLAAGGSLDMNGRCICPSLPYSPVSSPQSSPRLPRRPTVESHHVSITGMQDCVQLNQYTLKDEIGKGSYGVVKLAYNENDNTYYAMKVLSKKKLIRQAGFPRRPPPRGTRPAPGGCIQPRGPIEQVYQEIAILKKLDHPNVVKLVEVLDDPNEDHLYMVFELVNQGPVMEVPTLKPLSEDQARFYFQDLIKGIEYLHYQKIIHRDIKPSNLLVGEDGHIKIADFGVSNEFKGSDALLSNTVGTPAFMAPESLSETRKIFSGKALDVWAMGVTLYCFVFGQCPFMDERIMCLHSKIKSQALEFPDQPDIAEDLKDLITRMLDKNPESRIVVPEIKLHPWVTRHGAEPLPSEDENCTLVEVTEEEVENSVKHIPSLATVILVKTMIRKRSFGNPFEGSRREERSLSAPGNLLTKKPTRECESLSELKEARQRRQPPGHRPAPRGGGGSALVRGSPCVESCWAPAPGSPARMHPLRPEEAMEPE

[6] = target: Mitogen-activated protein kinase kinase kinase 3 (Homo sapiens, UniProt Q99759); test: Inhibition of MEKK3 (unknown origin)
Chain of Mitogen-activated protein kinase kinase kinase 3 (Q99759 whole entry): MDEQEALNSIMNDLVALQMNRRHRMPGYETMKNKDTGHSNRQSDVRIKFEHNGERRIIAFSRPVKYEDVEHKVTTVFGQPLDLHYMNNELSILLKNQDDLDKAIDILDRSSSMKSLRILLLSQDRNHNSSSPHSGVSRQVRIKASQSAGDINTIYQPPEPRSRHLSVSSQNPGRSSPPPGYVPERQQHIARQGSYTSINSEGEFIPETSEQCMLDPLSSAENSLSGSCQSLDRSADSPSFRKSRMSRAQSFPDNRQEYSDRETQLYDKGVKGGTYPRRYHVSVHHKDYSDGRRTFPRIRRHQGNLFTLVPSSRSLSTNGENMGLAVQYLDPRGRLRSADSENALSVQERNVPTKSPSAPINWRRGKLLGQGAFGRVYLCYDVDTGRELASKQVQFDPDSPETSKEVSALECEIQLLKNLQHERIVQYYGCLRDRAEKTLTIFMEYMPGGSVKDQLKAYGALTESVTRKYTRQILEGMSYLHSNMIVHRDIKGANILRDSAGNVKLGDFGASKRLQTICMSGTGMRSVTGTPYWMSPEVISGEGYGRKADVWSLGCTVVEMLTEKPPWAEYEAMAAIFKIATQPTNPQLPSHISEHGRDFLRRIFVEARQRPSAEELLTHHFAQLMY

[7] = target: Epidermal growth factor receptor (Homo sapiens, UniProt P00533)
Chain of Epidermal growth factor receptor (P00533 whole entry): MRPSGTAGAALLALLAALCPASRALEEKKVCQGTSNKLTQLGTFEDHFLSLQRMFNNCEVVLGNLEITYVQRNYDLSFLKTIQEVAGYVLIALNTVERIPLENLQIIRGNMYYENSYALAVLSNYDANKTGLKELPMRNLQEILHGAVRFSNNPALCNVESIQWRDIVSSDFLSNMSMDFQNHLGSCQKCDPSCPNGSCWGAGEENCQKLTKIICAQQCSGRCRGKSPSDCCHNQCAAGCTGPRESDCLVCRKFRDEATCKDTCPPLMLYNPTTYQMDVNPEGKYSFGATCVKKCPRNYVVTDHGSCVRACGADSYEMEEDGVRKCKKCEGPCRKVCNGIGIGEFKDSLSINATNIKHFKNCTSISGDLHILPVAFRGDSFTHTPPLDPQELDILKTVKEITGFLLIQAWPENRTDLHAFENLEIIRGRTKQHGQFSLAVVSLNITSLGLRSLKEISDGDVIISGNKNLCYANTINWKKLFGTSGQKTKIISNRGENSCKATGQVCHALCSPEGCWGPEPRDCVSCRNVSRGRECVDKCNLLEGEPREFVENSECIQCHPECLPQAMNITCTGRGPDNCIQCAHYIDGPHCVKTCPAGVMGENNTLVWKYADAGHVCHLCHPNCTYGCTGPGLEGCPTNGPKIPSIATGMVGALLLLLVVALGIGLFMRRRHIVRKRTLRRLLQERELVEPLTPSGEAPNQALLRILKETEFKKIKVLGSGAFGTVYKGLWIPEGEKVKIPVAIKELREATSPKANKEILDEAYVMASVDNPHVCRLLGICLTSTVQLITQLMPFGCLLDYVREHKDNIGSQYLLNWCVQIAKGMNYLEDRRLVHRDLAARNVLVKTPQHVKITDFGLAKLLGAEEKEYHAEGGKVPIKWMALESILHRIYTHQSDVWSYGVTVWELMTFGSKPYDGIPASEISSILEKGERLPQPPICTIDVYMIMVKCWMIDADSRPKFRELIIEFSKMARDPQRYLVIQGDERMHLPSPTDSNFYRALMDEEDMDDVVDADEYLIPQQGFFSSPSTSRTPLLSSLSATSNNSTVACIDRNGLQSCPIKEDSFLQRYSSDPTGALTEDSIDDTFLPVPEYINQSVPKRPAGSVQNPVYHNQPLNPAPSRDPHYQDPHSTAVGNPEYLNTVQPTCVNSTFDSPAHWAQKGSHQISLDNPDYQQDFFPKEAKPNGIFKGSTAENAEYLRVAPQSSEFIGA

[8] = target: Tyrosine-protein kinase Lck (Homo sapiens, UniProt P06239); test: Inhibition of recombinant human LCK using Ulight-Poly GAT[EAY(1:1:1)]n as substrate incubate for 10 mins by LANCE assay
Chain of Tyrosine-protein kinase Lck (P06239 whole entry): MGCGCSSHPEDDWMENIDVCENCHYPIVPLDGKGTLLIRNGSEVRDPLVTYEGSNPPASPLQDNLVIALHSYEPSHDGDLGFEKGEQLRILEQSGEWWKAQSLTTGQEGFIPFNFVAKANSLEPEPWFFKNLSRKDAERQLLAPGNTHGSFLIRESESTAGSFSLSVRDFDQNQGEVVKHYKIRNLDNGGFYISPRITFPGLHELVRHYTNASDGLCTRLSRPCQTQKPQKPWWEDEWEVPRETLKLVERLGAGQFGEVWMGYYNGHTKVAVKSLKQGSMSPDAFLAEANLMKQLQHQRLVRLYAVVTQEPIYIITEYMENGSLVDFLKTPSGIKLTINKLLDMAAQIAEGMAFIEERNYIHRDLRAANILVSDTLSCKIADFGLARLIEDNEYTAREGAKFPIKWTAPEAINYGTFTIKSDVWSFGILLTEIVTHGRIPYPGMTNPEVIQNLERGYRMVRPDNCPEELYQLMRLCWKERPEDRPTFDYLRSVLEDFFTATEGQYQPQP

[9] = Toxicity in BALB/c mouse assessed as normal behavior at 2 g/kg, po measured after 7 days of administration; conditions: in vivo, 168 h
[10] = system: L02; test: Cytotoxicity against human L02 cells assessed as reduction in cell viability incubated for 72 hrs by MTT assay; assay type: ADME, cell-based; conditions: L02, 72 h
[11] = Toxicity in BALB/c mouse assessed as mouse survival at 2 g/kg, po measured after 7 days of administration; conditions: in vivo, 168 h
[12] = Tmax in Sprague-Dawley rat at 3 mg/kg, po measured up to 24 hrs by LC-MS/MS analysis; assay type: ADME, organism-based; conditions: in vivo
[13] = target: Tyrosine-protein kinase BTK (Homo sapiens, UniProt Q06187); test: Inhibition of BTK in human Raji cells assessed as reduction in BTK Y551 phosphorylation at 0.03 to 10 uM incubated for 1 hr by Western blot analysis; assay type: cell-based; conditions: dose 0.03-10 µM
Chain of Tyrosine-protein kinase BTK (Q06187 whole entry): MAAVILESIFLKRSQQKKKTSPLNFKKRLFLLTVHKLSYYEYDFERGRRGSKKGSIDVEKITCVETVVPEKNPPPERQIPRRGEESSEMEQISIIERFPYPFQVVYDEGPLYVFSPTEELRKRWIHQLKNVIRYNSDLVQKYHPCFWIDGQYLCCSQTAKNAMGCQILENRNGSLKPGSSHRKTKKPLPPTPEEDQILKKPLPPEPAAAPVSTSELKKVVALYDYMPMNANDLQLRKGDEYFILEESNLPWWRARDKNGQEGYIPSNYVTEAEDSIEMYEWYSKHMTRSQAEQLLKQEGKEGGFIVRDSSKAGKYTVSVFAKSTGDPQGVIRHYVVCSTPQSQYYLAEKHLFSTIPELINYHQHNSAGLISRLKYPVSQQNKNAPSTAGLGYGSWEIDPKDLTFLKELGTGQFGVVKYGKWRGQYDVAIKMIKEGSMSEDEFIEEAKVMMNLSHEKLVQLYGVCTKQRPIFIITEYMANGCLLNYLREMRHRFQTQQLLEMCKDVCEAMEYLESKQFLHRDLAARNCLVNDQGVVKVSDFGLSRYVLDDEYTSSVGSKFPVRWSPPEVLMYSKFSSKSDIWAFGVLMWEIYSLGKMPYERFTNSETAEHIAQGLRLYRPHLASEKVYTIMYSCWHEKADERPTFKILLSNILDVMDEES

[14] = Metabolic stability in human liver microsomes assessed as half life at 100 uM/L measured upto 90 mins by LC-MS/MS analysis; assay type: ADME, Microsome

With `C=CC(=O)N1CCC(Cn2cc(-c3ccc4c(c3)OCO4)c3c(N)ncnc32)CC1` the IC50 [1] was over 10 µM, the half-life at 100 µM [2] was 5.25 h and the Activity [3] was “Non-Toxic”. For the same compound, the half-life at 100 µM [4] was 3.12 h, the IC50 [5] was over 10 µM and the IC50 [6] was over 10 µM. The IC50 [7] was over 10 µM, the IC50 [8] was 0.636 µM and the Activity [9] was “Non-Toxic”. The IC50 [10] was 31.3 µM, the Activity [11] was “Non-Toxic” and the Tmax [12] was 0.96 h. For the same compound, the inhibition [13] was “inactive” and the half-life at 100 µM [14] was 5.5 h.
